Test results published in patent US20130184321A1, “Model Mouse of Attention Deficit Hyperactivity Disorder, Method for Investigating Effects for Preventing and Alleviating Attention Disorder using the Model Mouse, and Method for Treating Attention Disorder by Suppressing T-Type Calcium Channel” (KOREA ADVANCED INSTITUTE OF SCIENCE AND TECHNOLOGY, priority 2010, published 2013).

Tested on: ADHD animal model implanted with cobalt wire
Assay: Changes in brain wave (EEG spikes) of ADHD animal model by T-type calcium channel blocker
Format: in vivo, mouse
Settings: cobalt wire implanted 7~9 days earlier, brain wave observed for one hour; for spikes observed in the frontal lobe, after vs before treatment: P<0.05
Experimental: Particularly, to construct the ADHD mouse model, 0.2% avertin in 20 mg/ml of tribromoethanol was administered to the mouse by intraperitoneal injection (i.p.) to anesthetize it. The head of the mouse (B6 mouse at 10˜20 weeks) was fixed on stereotaxic (David Kopf Instruments, Germany) and then cobalt wire (Alfa Aesar) was inserted therein by using holder, a part of stereotaxic. Cobalt wire (Alfa Aesar) of 500 μm in the diameter was inserted radially (vertical direction to the cortical surface) in the location of anteroposteriorally 2.6 mm, laterally 1.8 mm, and ventrally 1.3 mm in the right dorsolateral frontal lobe.
For the record of EEG, epidural electrode was inserted in the right frontal lobe where the cobalt wire was inserted. Other electrodes were inserted in the left frontal lobe and temporal lobe. Particularly, the location for the insertion in the right frontal lobe was anteroposteriorally 2.8 mm and laterally 0.8 mm and the location in the left frontal lobe was anteroposteriorally 2.8 mm and laterally 0.8 mm. […]
After three days of recovery, EEG signals and video images were recorded for 30 days. […]
Particularly, 150 mg/kg of ethosuximide (Sigma-Aldrich, USA) was administered in the abdominal cavity of the ADHD animal model implanted with cobalt wire 7˜9 days earlier, followed by observation of the changes in brain wave for one hour. The mice were placed in the test room having square bottom where they could move freely and brain waves were being recorded from 30 minutes before the ethosuximide administration. The number of spikes was measured before and after the treatment of ethosuximide.
60 mg/kg of zonisamide (Sigma-Aldrich, USA) and 100 mg/kg of phyenytoin (Sigma-Aldrich, USA) were administered respectively in the abdominal cavity of the ADHD animal model implanted with cobalt wire 7˜9 days earlier, followed by observation of the changes in brain wave for one hour. The mice were placed in the test room having square bottom where they could move freely and brain waves were being recorded from 30 minutes before the ethosuximide administration. […]

For `NS(=O)(=O)Cc1noc2ccccc12` [zonisamide], the “spikes observed in the frontal lobe, after vs before treatment” value (60 mg/kg in the abdominal cavity) was “significantly reduced”.

With `O=C1NC(=O)C(c2ccccc2)(c2ccccc2)N1` [phyenytoin] the “spikes observed in the frontal lobe, after vs before treatment” value (100 mg/kg in the abdominal cavity) was “significantly reduced”.

For `CCC1(C)CC(=O)NC1=O` (stereo not drawn) [ethosuximide], the “number of spikes observed in the frontal lobe, after vs before treatment” value (150 mg/kg in the abdominal cavity) was “significantly reduced”.
